According to patent US20240141294A1, “CGMP COMPLIANT PRODUCTION AND EXPANSION OF PLASMACYTOID DENDRITIC CELLS FROM HEMATOPOIETIC STEM AND PROGENITOR CELLS” (AARHUS UNIVERSITET, priority 2021, published 2024):

Tested on: HSPC-pDCs
Assay: RNA-sequencing of HSPC-pDCs generated with or without ascorbic acid
Type: cell-based, human
Description: HSPCs were thawed and 1×10^5 cells were seeded in DC medium with or without supplementation of ascorbic acid (AA). Following 16 days of differentiation with or without AA in the medium, pDCs were isolated by immunomagnetic depletion of non-pDCs, and HSPCs-pDCs were then primed for 72 hours with IFN-β/γ. Following priming, HSPC-pDCs were stored in RNAprotect Cell Reagent (Qiagen) at −80° C. until total RNA was extracted using the RNeasy Plus Micro Kit (Qiagen), which efficiently eliminates genomic DNA without the need for DNase treatment. The total RNA was send to BGI Europe for RNA-seq. Here, a non-stranded & polyA-selected mRNA library was prepared from the total RNA and subjected to PE100 sequencing using the BGISEQ platform. The samples generated on average about 4.84 Gb bases per sample. Low quality reads were filtered and the remaining reads were mapped to the genome with an average mapping ratio with the reference genome at 92.74%, the average gene mapping ratio at 79.90%. In total, 18,412 genes were identified. Gene expression was calculated based on the reads, differentially expressed genes and gene ontology analyses were analyzed on BGI's software analysis platform Dr. Tom. HSPCs were thawed and 1×10^5 cells were seeded in DC medium with or without supplementation of ascorbic acid (AA). Following 16 days of differentiation with or without AA in the medium, pDCs were isolated by immunomagnetic depletion of non-pDCs, and HSPCs-pDCs were then primed for 72 hours with IFN-β/γ. Following priming, HSPC-pDCs were stored in RNAprotect Cell Reagent (Qiagen) at −80 degrees until total RNA was extracted using the RNeasy Plus Micro Kit (Qiagen), which efficiently eliminates genomic DNA without the need for DNase treatment. The total RNA was send to BGI Europe for RNA-seq. Here, a non-stranded & polyA-selected mRNA library was prepared from the total RNA and subjected to PE100 sequencing using the BGISEQ platform. The samples generated on average about 4.84 Gb bases per sample. Low quality reads were filtered and the remaining reads were mapped to the genome with an average mapping ratio with the reference genome at 92.74%, the average gene mapping ratio at 79.90%. In total, 18,412 genes were identified. Gene expression was calculated based on the reads, differentially expressed genes and gene ontology analyses were analyzed on BGI's software analysis platform Dr. Tom.

[1] = condition with AA, |log 2FC|>=1 and Qvalue <=0.05

## O=C1O[C@H]([C@@H](O)CO)C(O)=C1O [ascorbic acid]
[1]
  number of downregulated genes: 334 genes
  number of upregulated genes: 916 genes
Gene ADA2, Qvalue 2.90E−08
  Log2 (+AA/−AA): 0.759
Gene ADA2, −AA FPKM 117.7033
  +AA FPKM: 197.7367 FPKM
Gene ALOX5AP, Qvalue 0.002016945
  Log2 (+AA/−AA): 0.793
Gene ALOX5AP, −AA FPKM 210
  +AA FPKM: 364 FPKM
Gene ANXA2, Qvalue 9.39E−07
  Log2 (+AA/−AA): 1.658
Gene ANXA2, −AA FPKM 106
  +AA FPKM: 333 FPKM
Gene APP, Qvalue 0.015253176
  Log2 (+AA/−AA): 0.696
Gene APP, −AA FPKM 133
  +AA FPKM: 215 FPKM
Gene BRI3, Qvalue 0.00802755
  Log2 (+AA/−AA): 0.724
Gene BRI3, −AA FPKM 216
  +AA FPKM: 358 FPKM
Gene C1QA, Qvalue 0.002254892
  Log2 (+AA/−AA): 1.342
Gene C1QA, −AA FPKM 91
  +AA FPKM: 230 FPKM
Gene C1QB, Qvalue 0.011037205
  Log2 (+AA/−AA): 1.137
Gene C1QB, −AA FPKM 147
  +AA FPKM: 323 FPKM
Gene C1QC, Qvalue 0.002547556
  Log2 (+AA/−AA): 1.551
Gene C1QC, −AA FPKM 126
  +AA FPKM: 365 FPKM
Gene C1orf162, Qvalue 0.038404809
  Log2 (+AA/−AA): 0.529
Gene C1orf162, −AA FPKM 178
  +AA FPKM: 256 FPKM
Gene CD68, Qvalue 3.20E−09
  Log2 (+AA/−AA): 1.365
Gene CD68, −AA FPKM 240
  +AA FPKM: 619 FPKM
Gene CD74, Qvalue 3.24E−08
  Log2 (+AA/−AA): 0.841
Gene CD74, −AA FPKM 5008
  +AA FPKM: 8923 FPKM
Gene CD81, Qvalue 0.002330558
  Log2 (+AA/−AA): 1.451
Gene CD81, −AA FPKM 85
  +AA FPKM: 235 FPKM
Gene CHI3L1, Qvalue 0.024834793
  Log2 (+AA/−AA): 2.178
Gene CHI3L1, −AA FPKM 108
  +AA FPKM: 496 FPKM
Gene CTSB, Qvalue 6.81E−09
  Log2 (+AA/−AA): 1.920
Gene CTSB, −AA FPKM 96
  +AA FPKM: 363 FPKM
Gene CTSD, Qvalue 1.73E−06
  Log2 (+AA/−AA): 1.460
Gene CTSD, −AA FPKM 323
  +AA FPKM: 893 FPKM
Gene CTSH, Qvalue 2.00E−04
  Log2 (+AA/−AA): 1.227
Gene CTSH, −AA FPKM 116
  +AA FPKM: 271 FPKM
Gene CTSS, Qvalue 1.80E−04
  Log2 (+AA/−AA): 0.939
Gene CTSS, −AA FPKM 126
  +AA FPKM: 242 FPKM
Gene CTSZ, Qvalue 3.93E−08
  Log2 (+AA/−AA): 1.002
Gene CTSZ, −AA FPKM 232
  +AA FPKM: 462 FPKM
Gene CYBB, Qvalue 0.018453508
  Log2 (+AA/−AA): 0.807
Gene CYBB, −AA FPKM 184
  +AA FPKM: 322 FPKM
Gene DEFA1, Qvalue 6.38E−05
  Log2 (+AA/−AA): 5.728
Gene DEFA1, −AA FPKM 20
  +AA FPKM: 1047 FPKM
Gene DEFA3, Qvalue 0.001704486
  Log2 (+AA/−AA): 4.431
Gene DEFA3, −AA FPKM 27
  +AA FPKM: 593 FPKM
Gene DEFA4, Qvalue 1.65E−08
  Log2 (+AA/−AA): 4.651
Gene DEFA4, −AA FPKM 39
  +AA FPKM: 975 FPKM
Gene EVI2B, Qvalue 0.01888367
  Log2 (+AA/−AA): 0.294
Gene EVI2B, −AA FPKM 193
  +AA FPKM: 236 FPKM
Gene FCER1G, Qvalue 0.033270138
  Log2 (+AA/−AA): 0.509
Gene FCER1G, −AA FPKM 961
  +AA FPKM: 1367 FPKM
Gene FLNA, Qvalue 0.011692048
  Log2 (+AA/−AA): 0.372
Gene FLNA, −AA FPKM 160.4000
  +AA FPKM: 206.4233 FPKM
Gene FTH1, Qvalue 0.00845252
  Log2 (+AA/−AA): 1.289
Gene FTH1, −AA FPKM 1395
  +AA FPKM: 3417 FPKM
Gene GRINA, Qvalue 0.006989716
  Log2 (+AA/−AA): 0.718
Gene GRINA, −AA FPKM 130
  +AA FPKM: 214 FPKM
Gene GRN, Qvalue 0.015829898
  Log2 (+AA/−AA): 0.695
Gene GRN, −AA FPKM 432
  +AA FPKM: 696 FPKM
Gene HLA-DMB, Qvalue 0.022417743
  Log2 (+AA/−AA): 0.717
Gene HLA-DMB, −AA FPKM 188
  +AA FPKM: 307 FPKM
Gene HLA-DPA1, Qvalue 6.34E−04
  Log2 (+AA/−AA): 0.763
Gene HLA-DPA1, −AA FPKM 1038
  +AA FPKM: 1750 FPKM
Gene HLA-DPB1, Qvalue 0.003235049
  Log2 (+AA/−AA): 0.785
Gene HLA-DPB1, −AA FPKM 227
  +AA FPKM: 388 FPKM
Gene HLA-DQA1, Qvalue 0.03140587
  Log2 (+AA/−AA): 1.374
Gene HLA-DQA1, −AA FPKM 161
  +AA FPKM: 414 FPKM
Gene HLA-DRB1, Qvalue 1.76E−04
  Log2 (+AA/−AA): 1.122
Gene HLA-DRB1, −AA FPKM 1106
  +AA FPKM: 2401 FPKM
Gene HLA-DRB3, Qvalue 0.018823029
  Log2 (+AA/−AA): 1.224
Gene HLA-DRB3, −AA FPKM 159
  +AA FPKM: 365 FPKM
Gene IFI27, Qvalue 3.56E−04
  Log2 (+AA/−AA): 4.638
Gene IFI27, −AA FPKM 15
  +AA FPKM: 377 FPKM
Gene IFITM3, Qvalue 6.61E−06
  Log2 (+AA/−AA): 1.496
Gene IFITM3, −AA FPKM 494
  +AA FPKM: 1383 FPKM
Gene IL2RG, Qvalue 0.001778062
  Log2 (+AA/−AA): 0.785
Gene IL2RG, −AA FPKM 122
  +AA FPKM: 209 FPKM
Gene ITGB2, Qvalue 9.28E−04
  Log2 (+AA/−AA): 0.599
Gene ITGB2, −AA FPKM 433
  +AA FPKM: 654 FPKM
Gene LGALS3, Qvalue 5.07E−04
  Log2 (+AA/−AA): 1.667
Gene LGALS3, −AA FPKM 62.3833
  +AA FPKM: 199.3967 FPKM
Gene LGALS3BP, Qvalue 5.08E−05
  Log2 (+AA/−AA): 1.001
Gene LGALS3BP, −AA FPKM 155
  +AA FPKM: 310 FPKM
Gene MX1, Qvalue 0.026353098
  Log2 (+AA/−AA): 2.341
Gene MX1, −AA FPKM 42
  +AA FPKM: 212 FPKM
Gene NCF1, Qvalue 0.015338721
  Log2 (+AA/−AA): 0.659
Gene NCF1, −AA FPKM 131
  +AA FPKM: 207 FPKM
Gene PRDX1, Qvalue 0.009710824
  Log2 (+AA/−AA): 1.094
Gene PRDX1, −AA FPKM 106
  +AA FPKM: 227 FPKM
Gene PSAP, Qvalue 7.31E−04
  Log2 (+AA/−AA): 0.802
Gene PSAP, −AA FPKM 600
  +AA FPKM: 1044 FPKM
Gene RETN, Qvalue 0.035172121
  Log2 (+AA/−AA): 0.766
Gene RETN, −AA FPKM 244
  +AA FPKM: 414 FPKM
Gene S100A11, Qvalue 0.024890893
  Log2 (+AA/−AA): 0.525
Gene S100A11, −AA FPKM 732
  +AA FPKM: 1054 FPKM
Gene SERPING1, Qvalue 2.30E−05
  Log2 (+AA/−AA): 1.387
Gene SERPING1, −AA FPKM 181
  +AA FPKM: 471 FPKM
Gene SOD2, Qvalue 0.017321675
  Log2 (+AA/−AA): 1.145
Gene SOD2, −AA FPKM 129
  +AA FPKM: 301 FPKM
Gene TYMP, Qvalue 0.016368204
  Log2 (+AA/−AA): 0.679
Gene TYMP, −AA FPKM 348
  +AA FPKM: 553 FPKM
Of 54 selected genes, AA in media during HSPC-pDC generation
  number of TLR7 and TLR9 pathway genes statistically significantly expressed: 17 genes
